According to the NIST ThermoML archive (doi:10.1021/je4005323):

Conditions: Liquid; for speed of sound: Pulse-echo method; for mass density: Vibrating tube method

CCCCC/C=C\C/C=C\CCCCCCCC(=O)OC [methyl (Z,Z)-9,12-octadecadienate]
Conditions	mass density, 293.15 K [kg/m3]	mass density, 303.15 K [kg/m3]	mass density, 313.15 K [kg/m3]	mass density, 323.15 K [kg/m3]	mass density, 333.15 K [kg/m3]	mass density, 343.15 K [kg/m3]	speed of sound, 283.15 K [m/s]	speed of sound, 303.15 K [m/s]	speed of sound, 323.15 K [m/s]	speed of sound, 343.15 K [m/s]
101.3 kPa	885.2	877.7	870.9	863.7	856.3	849.1	1455	1382.9	1312.6	1245.1
10000 kPa	891.2	884	877.1	870.1	863	856.2	1498.2	1428.9	1361.4	1297.9
20000 kPa	896.6	889.6	882.9	876.3	869.5	863	1539	1472.2	1407.2	1346.9
30000 kPa	901.8	895	888.5	882	875.4	869.3	1577.6	1513.6	1450.8	1392.6
40000 kPa	906.8	900.1	893.7	887.3	881.3	875.1	1614.3	1552	1491.3	1435.4
50000 kPa	911.4	905	898.8	892.4	886.5	880.8	1649.2	1588.6	1530.3	1475.1
60000 kPa	915.9	909.5	903.3	897.4	891.5	885.9	1682.6	1623.5	1567.2	1513.2
70000 kPa	920.2	914	908	902.1	896.4	890.9	1714	1656.3	1601.4	1549.4
80000 kPa	924	918.1	912.2	906.7	900.9	–	1745.2	1688.3	1634.3	–
90000 kPa	928.2	922.2	916.6	910.9	905.4	–	1774.4	1719.1	1666.2	–
100000 kPa	931.3	926.2	920.6	915.1	910	–	1803.2	1748.7	1697.2	–
110000 kPa	–	–	–	–	–	–	1830.9	1776.9	1726.4	–
120000 kPa	–	–	–	–	–	–	1857.8	1804.4	1754.6	–
130000 kPa	–	–	–	–	–	–	1884.6	1831.3	1782.4	–
140000 kPa	–	–	–	–	–	–	1909.9	1857	1808.7	–
150000 kPa	–	–	–	–	–	–	1934.7	1883.6	1834.7	–
170000 kPa	–	–	–	–	–	–	–	1932.3	1884.5	–
190000 kPa	–	–	–	–	–	–	–	1979.7	1931.7	–
210000 kPa	–	–	–	–	–	–	–	2023.6	1977.6	–
